Assays:
[1] = test system: Caco-2 cells; experiment: In vitro EGCG absorption measurement system, Caco-2 cell monolayer on Transwell (Papp of EGCG, chorionic to serosal side)
Experimental: An orally-ingested polyphenol compound, in particular, catechin compound is considered to be absorbed mainly in the intestinal tract, especially the small intestine in the body. […]
The Caco-2 cells were cultured in the presence of humidified air containing 5% CO2 in a Dulbecco's modified Eagle medium (DMEM, pH 7.4; manufactured by GIBCO) containing 10% inactivated fetal bovine serum (manufactured by HyClone), 50 U/mL penicillin-50 μg/mL streptomycin (manufactured by GIBCO), and a 1% non-essential amino acid (manufactured by GIBCO) in a plastic flask of 75 cm^2. The cells were maintained by performing subculture every 5 to 8 days when the cells reached 80 to 90% confluence. An EGCG absorption experiment to be described below was performed using Caco-2 cells which had been subcultured 30 to 70 times.
The EGCG absorption experiment was performed using a Caco-2 cell monolayer cultured on a Transwell with a diameter of 12 mm (polycarbonate filter culture area: 1.13 cm^2, pore size: 0.4 μm; manufactured by Corning). […] Transepithelial electrical resistance (hereinafter, referred to as “TEER”) was measured using a Millicell ERS meter (manufactured by Millipore) to monitor the degree of completion of a tight junction of the cell monolayer, and a monolayer which had been confirmed that formation of the tight junction had been completed was used in the experiment. […]

[2] = EGCG in rat plasma after oral administration of green tea extract solution with serine and malic acid (Test Example 4); format: in vivo, rats; settings: rat plasma after administration solutions (i) to (iv)
Experimental: The final EGCG concentration derived from the green tea extract contained in each administration solution was adjusted to 1 mM. […] During the recuperation period, the rats were fed individually in cages equipped with floor nets and allowed to ingest CE-2 feed (manufactured by CLEA Japan, Inc.) freely. […] The EGCG concentration in plasma was measured as follows: […] Isocratic elution was performed at a sample injection volume to the column of 20 μL using 0.1% phosphoric acid containing 0.1 mM EDTA·2Na:acetonitrile=90:10 as the mobile phase at a flow rate of 0.4 mL/min. […] The retention time of the EGCG standard substance was 8.0 minutes, and the detection sensitivity was 2 nM. The EGCG concentrations in actual administration solutions were also analyzed again, and it was confirmed that EGCG was administered to the rats in scheduled amounts. Rat plasma collected after administration of each of the administration solutions (i), (ii), (iii), and (iv) was treated and subjected to HPLC analysis as mentioned above. […] In other words, it was considered that most of EGCG in blood was absorbed in blood as an unconjugated free body.

[3] = EGCG absorbability in rats, Camellia sinensis (L.) O. Kuntze extracts versus green tea extracts (Test Example 7); format: in vivo; settings: rat plasma
Description: For Camellia sinensis (L.) O. Kuntze extracts (Camellia sinensis (L.) O. Kuntze tea hot water extract manufactured by ASAHI SOFT DRINKS CO., Ltd.; lot 1 [i], lot 2 [ii], and lot 3 [iii]) and green tea extracts (green tea hot water extract manufactured by San-Ei Gen F.F.I., Inc.; lot 4 [iv] and lot 5 [v]), absorbability of EGCG by rats were compared. […] During the recuperation period, the rats were fed individually in cages equipped with floor nets and allowed to ingest CE-2 feed (manufactured by CLEA Japan, Inc.) freely. The numbers of samples of the administration solutions are as follows: [i] Camellia sinensis (L.) O. Kuntze extract lot 1-administered group: n=7; [ii] Camellia sinensis (L.) O. Kuntze extract lot 2-administered group: n=7; [iii] Camellia sinensis (L.) O. Kuntze extract lot 3-administered group: n=6; [iv] green tea extract lot 4-administered group:n=5; and [v] green tea extract lot 5-administered group: n=4. […] The EGCG concentration in plasma was measured in the same manner as in Test Example 4. […] Isocratic elution was performed at a sample injection volume to the column of 20 μL using 0.1% phosphoric acid containing 0.1 mM EDTA·2Na:acetonitrile=90:10 as the mobile phase at a flow rate of 0.4 mL/min. […] The EGCG concentrations in actual administration solutions were also analyzed again, and it was confirmed that EGCG was administered to the rats in scheduled amounts. […]

[4] = EGCG absorbability in rats, mixed administration solutions (Test Example 8); format: in vivo; settings: oral, 1 mM EGCG, Fisher's PLSD
Description: The reason why the significant differences are found in EGCG absorbability between the Camellia sinensis (L.) O. Kuntze extracts and the usual green tea extracts although both are extracts obtained by the same hot-water extraction procedures is probably that substances contained in the extracts differ from each other. That is, the green tea extracts may contain an ingredient which inhibits EGCG absorption, or the Camellia sinensis (L.) O. Kuntze extracts may contain an ingredient which promotes EGCG absorption. In order to gain the chance of investigation of the possibility, an experiment shown in this test example was performed. Specifically, a Camellia sinensis (L.) O. Kuntze extract solution, a usual green tea extract solution, and an EGCG reagent solution were prepared so as to have the same EGCG concentration, and solutions obtained by mixing the solutions in appropriate combination were administered to rats to investigate changes in EGCG absorbability. […] In the same manner as in Test Example 7, the administration solutions were orally administered forcibly to rats mounted with a cannula in the vein, and EGCG concentrations in plasma obtained by blood collection performed with time after administration were measured and converted into areas under curve to compare amounts of EGCG remaining in blood. […]

[5] = Stability of EGCG in the chorionic side HBSS solution; format: physicochemical; settings: chorionic side HBSS solution with 1 mM ascorbic acid, pH 5.5
Experimental: In addition, the EGCG absorption capacity of the Caco-2 cells was maintained constantly for 4 hours or more by adding 10 mM glutamine to the HBSS solutions of the chorionic side and serosal side in the measurement system.

[6] = test system: Caco-2 cell monolayer; experiment: Transepithelial electrical resistance (TEER) of the Caco-2 cell monolayer; format: cell-based, human; settings: EGCG reagent added at different concentrations to the chorionic side, 3-hour measurement period
Experimental: The EGCG absorption experiment was performed using a Caco-2 cell monolayer cultured on a Transwell with a diameter of 12 mm (polycarbonate filter culture area: 1.13 cm^2, pore size: 0.4 μm; manufactured by Corning). The Caco-2 cells were inoculated onto an insert of the Transwell at a density of 1.0×10^5 cells/cm^2, and culture was continued while the medium was exchanged for a fresh one every 2 days. Transepithelial electrical resistance (hereinafter, referred to as “TEER”) was measured using a Millicell ERS meter (manufactured by Millipore) to monitor the degree of completion of a tight junction of the cell monolayer, and a monolayer which had been confirmed that formation of the tight junction had been completed was used in the experiment. […]
The medium of the upper part of the Transwell insert on which the Caco-2 cell monolayer was placed (chorionic side) was replaced by a Hanks' Balanced Salt Solution-like Transport Medium having a pH of 5.5 (chorionic side HBSS solution; containing 10 mM MES, 5 mM glucose, 10 mM glutamine, and 1 mM ascorbic acid), and the medium of the lower part of the insert (serosal side) was replaced by HBSS having a pH of 7.4 (serosal side HBSS solution; containing […], 5 mM glucose, 10 mM glutamine, and 1 mM ascorbic acid). […] The cells were incubated for 30 minutes, and TEER was measured again. […]

[7] = Catechin compounds in human plasma after Camellia sinensis (L.) O. Kuntze extract with sodium malate (Test Example 9); format: in vivo; settings: humans, 135 mg with Camellia sinensis (L.) O. Kuntze extract (195 mg catechin compounds), oral; total of five catechin compounds
Experimental: The effect of malic acid on absorption of a catechin compound in humans was examined. Five healthy men and women which were 20 years old or more and less than 65 years old were selected as test subjects, and a test was performed on the effect of increasing the amount of the catechin compound remaining in blood by ingesting sodium malate simultaneously with the Camellia sinensis (L.) O. Kuntze extract. […]
The test was performed by a crossover test as described below. […] In the same manner as in Test Example 4, concentrations of the catechin compounds in plasma were measured by the HPLC-ECD method (electrochemical detection method). […] As the second phase, concentrations of the catechin compounds in plasma were measured under the same conditions as those in the first phase except that each subject ingested the control substance. It should be noted that the concentrations of the catechin compounds were determined as a total concentration of five kinds of catechin compounds including EGCG, 3″-O-methylepigallocatechin gallate, epigallocatechin, epicatechin gallate, and epicatechin.

Change in EGCG concentration in plasma before and after deconjugation treatments with β-glucuronidase and sulfatase [2]	Change in EGCG concentrations in plasma before and after the deconjugation treatment with β-glucuronidase and sulfatase [3]	Difference in mean values, EGCG concentrations in plasma × time (areas under curve) ([4]; labelled solution vs [ii] EGCG reagent + green tea extract)	Difference in mean values, EGCG concentrations in plasma × time (areas under curve) ([4]; labelled solution vs [iii] Camellia sinensis (L.) O. Kuntze extract + green tea extract)	Stability of EGCG during the absorption experiment period [5]	TEER during the measurement period [6]	SMILES	EGCG absorbed in the form of a conjugate (deconjugation treatment of EGCG permeated to the serosal side) [1]	AUC0→4h of total catechins in plasma relative to ingestion of no sodium malate [7]
no changes	not changed	0.0052	0.0009	maintained completely and stably	maintained well	O=C(O[C@@H]1Cc2c(O)cc(O)cc2O[C@@H]1c1cc(O)c(O)c(O)c1)c1cc(O)c(O)c(O)c1 [EGCG, epigallocatechin gallate]	no EGCG absorbed in the form of a conjugate	
						O=C([O-])CC(O)C(=O)[O-].[Na+].[Na+] (centres unmarked) [sodium malate]		1.6 times

From patent publication US20120183614A1, “POLYPHENOL COMPOUND ABSORPTION PROMOTER AND UTILIZATION OF SAME” (priority 2009, published 2012)
